Test results reported in PubChem BioAssay AID256 (DTP/NCI, 2004).
Where “and” joins values, the source holds several entries; their conditions need not be identical. Equal values may be shown once. Inconclusive results and toxic doses are left out. The calls were made as follows: active = survival T/C of 150% or more; inactive = T/C below 125% in these data.

Tested on: CD2F1 mice, L1210 leukemia ip, survival T/C
Assay: NCI In Vivo Anticancer Drug Screen. Data for tumor model L1210 Leukemia (intraperitoneal) in CD2F1 (CDF1) mice
Conditions: endpoint: mean survival time, higher = longer survival
Method in brief: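 Each value reflects a quotient of treated over vehicle control outcomes in mice with a transplanted tumor.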

[1] = dose: 100.0 mg/kg/injection, schedule: Q01DX009 (ip), vehicle: saline with Tween-80
[2] = dose: 200.0 mg/kg/injection, schedule: Q01DX009 (ip), vehicle: saline with Tween-80
[3] = dose: 400.0 mg/kg/injection, schedule: Q01DX009 (ip), vehicle: saline with Tween-80
[4] = dose: 100.0 mg/kg/injection, schedule: Q01DX009 (ip), vehicle: saline
[5] = dose: 100.0 mg/kg/injection, schedule: Q04DX003 (ip), vehicle: saline with Tween-80
[6] = dose: 200.0 mg/kg/injection, schedule: Q01DX009 (ip), vehicle: saline
[7] = dose: 200.0 mg/kg/injection, schedule: Q04DX003 (ip), vehicle: saline with Tween-80
[8] = dose: 400.0 mg/kg/injection, schedule: Q04DX003 (ip), vehicle: saline with Tween-80
[9] = dose: 50.0 mg/kg/injection, schedule: Q01DX009 (ip), vehicle: other
[10] = dose: 75.0 mg/kg/injection, schedule: Q01DX001 (ip), vehicle: other
[11] = dose: 200.0 mg/kg/injection, schedule: Q04DX003 (ip), vehicle: saline

Measured: T/C

COc1c2c(c(OC)c3c1C(=O)c1ccccc1C3=O)CC(O)CC2 (stereo not given)
inactive: dose: 12.5 mg/kg/injection, schedule: Q01DX009 (ip), vehicle: Klucel (hydroxypropylcellulose) (HPC) 92 % of control | dose: 25.0 mg/kg/injection, schedule: Q01DX009 (ip), vehicle: Klucel (hydroxypropylcellulose) (HPC) 94 % of control | dose: 50.0 mg/kg/injection, schedule: Q01DX009 (ip), vehicle: Klucel (hydroxypropylcellulose) (HPC) 92 % of control | dose: 100.0 mg/kg/injection, schedule: Q01DX009 (ip), vehicle: Klucel (hydroxypropylcellulose) (HPC) 88 % of control | dose: 200.0 mg/kg/injection, schedule: Q01DX009 (ip), vehicle: Klucel (hydroxypropylcellulose) (HPC) 90 % of control

CC(Br)C(=O)NC(Cc1ccccc1)C(=O)O (stereo not given)
inactive: [1] 101 % of control | [2] 97 % of control | [3] 97 % of control

C=C1C2CCC3C2C(C)(C)CCCC13C (stereo not given)
inactive: [4] 98 % of control | [5] 103 % of control | [6] 97 % of control | [7] 104 % of control | dose: 400.0 mg/kg/injection, schedule: Q01DX009 (ip), vehicle: saline 101 % of control | [8] 93 % of control

OC(Cc1cccc(/C=N/N2CCOCC2)n1)(C(F)(F)F)C(F)(F)F
inactive: [7] 89 % of control | [8] 89 % of control

CCOC(=O)Cc1cnc(SC)[nH]c1=O
inactive: dose: 50.0 mg/kg/injection, schedule: Q04DX003 (ip), vehicle: Klucel (hydroxypropylcellulose) (HPC) 111 % of control | dose: 100.0 mg/kg/injection, schedule: Q04DX003 (ip), vehicle: Klucel (hydroxypropylcellulose) (HPC) 106 % of control | dose: 200.0 mg/kg/injection, schedule: Q04DX003 (ip), vehicle: Klucel (hydroxypropylcellulose) (HPC) 106 % of control | dose: 600.0 mg/kg/injection, schedule: Q04DX003 (ip), vehicle: Klucel (hydroxypropylcellulose) (HPC) 100 % of control

CN(C)c1ccc(/C=C\C(=O)c2ccccc2)cc1
inactive: dose: 50.0 mg/kg/injection, schedule: Q01DX009 (ip), vehicle: saline 109 % of control | [4] 97 % of control | [6] 106 % of control

N#C/C(=N\Nc1ccc(S(=O)(=O)O)cc1)C(N)=O
inactive: [1] 95 % of control | [2] 91 % of control | [3] 94 % of control

NC(=O)C(CC(=O)OCc1ccccc1)NC(=O)OCc1ccccc1 (stereo not given)
inactive: dose: 100.0 mg/kg/injection, schedule: Q04DX003 (ip), vehicle: saline + alcohol 97 % of control | dose: 200.0 mg/kg/injection, schedule: Q04DX003 (ip), vehicle: saline + alcohol 97 % of control | dose: 400.0 mg/kg/injection, schedule: Q04DX003 (ip), vehicle: saline + alcohol 97 % of control

Fc1ccc(-c2ccc(F)cc2)cc1
inactive: [5] 101 % of control | [7] 98 % of control | [8] 98 % of control

CC(C)(C)c1ccc(O)c(Sc2cc(C(C)(C)C)ccc2O)c1
inactive: [9] 96 % of control | dose: 100.0 mg/kg/injection, schedule: Q01DX009 (ip), vehicle: other 98 % of control | [1] 98 % of control | dose: 200.0 mg/kg/injection, schedule: Q01DX009 (ip), vehicle: other 101 % of control | [2] 103 % of control | [3] 94 % of control

Cc1cc(C)c2ccc(Cl)nc2n1
inactive: [10] 100 % of control

O=C(O)CSc1ccn(Cc2ccccc2)c1
inactive: [1] 94 % of control | [5] 106 % of control | [2] 88 % of control | [7] 98 % of control | [3] 88 % of control | [8] 98 % of control

CCOC(=O)C(N)Cc1ccc(OC)c(N(CCCl)CCCl)c1 (stereo not given)
inactive: dose: 1.1 mg/kg/injection, schedule: Q01DX001 (ip), vehicle: carboxymethylcellulose (CMC) 122 % of control | dose: 1.7 mg/kg/injection, schedule: Q01DX001 (ip), vehicle: carboxymethylcellulose (CMC) 120 % of control

O=C1OC(c2ccccc2)c2ccccc21 (stereo not given)
inactive: [1] 95 % of control | [2] 100 % of control | [3] 92 % of control

Cc1ccc(S(=O)(=O)OC2CCCCC2c2cccc(Cl)c2)cc1 (stereo not given)
inactive: [10] 92 % of control | dose: 150.0 mg/kg/injection, schedule: Q01DX001 (ip), vehicle: other 88 % of control | dose: 300.0 mg/kg/injection, schedule: Q01DX001 (ip), vehicle: other 101 % of control

O=C(O)/C=C\C(=O)Nc1ccccc1NC(=O)/C=C/C(=O)O
inactive: dose: 100.0 mg/kg/injection, schedule: Q04DX003 (ip), vehicle: saline 110 % of control | [11] 99 % of control | dose: 400.0 mg/kg/injection, schedule: Q04DX003 (ip), vehicle: saline 101 % of control

CN(C)NC(=O)CC(NCc1ccccc1)C(=O)O (stereo not given)
inactive: [5] 102 % of control | [7] 101 % of control | [8] 98 % of control

O=C(C=C(C(F)(F)F)C(F)(F)F)c1ccc(F)cc1
inactive: dose: 100.0 mg/kg/injection, schedule: Q04DX003 (ip), vehicle: other 88 % of control

O=C1CCCC1(c1ccccc1)c1ccccc1
inactive: [1] 101 % of control | [5] 91 % of control | [2] 101 % of control | [7] 91 % of control | [3] 95 % of control | [8] 94 % of control

C(=Nc1ccccc1)c1ccc(C=Nc2ccccc2)cc1
inactive: [1] 106 % of control | dose: 100.0 mg/kg/injection, schedule: Q04DX003 (ip), vehicle: saline sonified 97 % of control | [2] 94 % of control | dose: 200.0 mg/kg/injection, schedule: Q04DX003 (ip), vehicle: saline sonified 102 % of control | dose: 400.0 mg/kg/injection, schedule: Q04DX003 (ip), vehicle: saline sonified 97 % of control

CN(CCCOS(C)(=O)=O)CCCOS(C)(=O)=O
inactive: dose: 6.3 mg/kg/injection, schedule: Q01DX009 (ip), vehicle: saline 123 % of control | dose: 6.3 mg/kg/injection, schedule: Q04DX003 (ip), vehicle: saline 117 % of control and 119 % of control and 109 % of control | dose: 8.4 mg/kg/injection, schedule: Q01DX009 (oral), vehicle: saline 104 % of control | dose: 12.5 mg/kg/injection, schedule: Q01DX001 (ip), vehicle: saline 108 % of control | dose: 39.0 mg/kg/injection, schedule: Q01DX009 (oral), vehicle: saline 121 % of control | dose: 65.0 mg/kg/injection, schedule: Q01DX001 (oral), vehicle: saline 104 % of control | [4] 87 % of control and 105 % of control and 93 % of control | dose: 108.0 mg/kg/injection, schedule: Q01DX001 (oral), vehicle: saline 102 % of control | dose: 200.0 mg/kg/injection, schedule: Q01DX001 (ip), vehicle: saline 118 % of control | [11] 87 % of control and 88 % of control | dose: 300.0 mg/kg/injection, schedule: Q01DX001 (oral), vehicle: saline 114 % of control

O=CC(Br)C(Br)c1ccccc1 (stereo not given)
inactive: dose: 6.25 mg/kg/injection, schedule: Q01DX009 (ip), vehicle: saline with Tween-80 98 % of control | dose: 6.25 mg/kg/injection, schedule: Q04DX003 (ip), vehicle: saline with Tween-80 113 % of control | dose: 12.5 mg/kg/injection, schedule: Q01DX009 (ip), vehicle: saline with Tween-80 98 % of control | dose: 12.5 mg/kg/injection, schedule: Q04DX003 (ip), vehicle: saline with Tween-80 98 % of control | dose: 25.0 mg/kg/injection, schedule: Q01DX009 (ip), vehicle: saline with Tween-80 104 % of control | dose: 25.0 mg/kg/injection, schedule: Q04DX003 (ip), vehicle: saline with Tween-80 102 % of control and 104 % of control | [9] 111 % of control

COC(=O)C1=C(N)CCc2ccccc21
inactive: [1] 91 % of control | [2] 96 % of control | [3] 96 % of control

NC(=O)CC[n+]1ccccc1
inactive: dose: 12.5 mg/kg/injection, schedule: Q04DX003 (ip), vehicle: saline 97 % of control | dose: 25.0 mg/kg/injection, schedule: Q04DX003 (ip), vehicle: saline 97 % of control | dose: 50.0 mg/kg/injection, schedule: Q04DX003 (ip), vehicle: saline 96 % of control
